Melting point, Ki and Selectivity data for 14 molecules are collected here from US6630494B2, “Phenyl-substituted 1,4-dihydropyridines” (Bayer Aktiengesellschaft, priority 1983, dated 2003).

One may read the melting point as the temperature, or range, at which the solid turns liquid. For orientation: Ki means the dissociation constant of the complex between target and ligand, obtained from inhibition or displacement. A high value points to a looser hold on the target.

For series [1], the target named is T1, DHP (PN-200 110) binding sites in rats' heart (Rattus norvegicus, UniProt P22002).
T1 construct: from tissue; host or cells: rat heart
Nature of the series: Binding affinity to DHP (PN 200-110) binding sites in rats' heart. Particulars: PN 200-110 (DHP) binding sites. The procedure:
(§1) The binding affinities to PN 200-110 binding sites in rats' brains or rats' hearts are determined according to Rampe, D. R., Rutledge, A., Janis, R. A., Triggle, D. J.: Can. Journ. Physiol. Pharmacol. 65, (1987) 1452.
(§2) This selectivity exceeds that of the known cerebrally active Ca^2+-antagonistic dihydropyridines nimodipine and nicardipine. This is seen e.g. in the comparison of the binding affinities to DHP (PN-200 110) binding sites in rats' brain and rats' heart [cf. Rampe, D. R., Rutledge, A., Janis, R. A., Triggle, D. J., Can. Journ. Physiol. Pharmacol. 65 (1987), 1452].

Series [2] has as its system DHP (PN-200 110) binding sites in rats' brain. The series is described as follows: Binding affinity to DHP (PN 200-110) binding sites in rats' brain. Also on record: species or system rat. Particulars: comparison of binding affinities rats' brain vs rats' heart (Ki heart / Ki brain). The procedure: as §1, §2

T1 sequence (P22002 whole entry, other chains not shown): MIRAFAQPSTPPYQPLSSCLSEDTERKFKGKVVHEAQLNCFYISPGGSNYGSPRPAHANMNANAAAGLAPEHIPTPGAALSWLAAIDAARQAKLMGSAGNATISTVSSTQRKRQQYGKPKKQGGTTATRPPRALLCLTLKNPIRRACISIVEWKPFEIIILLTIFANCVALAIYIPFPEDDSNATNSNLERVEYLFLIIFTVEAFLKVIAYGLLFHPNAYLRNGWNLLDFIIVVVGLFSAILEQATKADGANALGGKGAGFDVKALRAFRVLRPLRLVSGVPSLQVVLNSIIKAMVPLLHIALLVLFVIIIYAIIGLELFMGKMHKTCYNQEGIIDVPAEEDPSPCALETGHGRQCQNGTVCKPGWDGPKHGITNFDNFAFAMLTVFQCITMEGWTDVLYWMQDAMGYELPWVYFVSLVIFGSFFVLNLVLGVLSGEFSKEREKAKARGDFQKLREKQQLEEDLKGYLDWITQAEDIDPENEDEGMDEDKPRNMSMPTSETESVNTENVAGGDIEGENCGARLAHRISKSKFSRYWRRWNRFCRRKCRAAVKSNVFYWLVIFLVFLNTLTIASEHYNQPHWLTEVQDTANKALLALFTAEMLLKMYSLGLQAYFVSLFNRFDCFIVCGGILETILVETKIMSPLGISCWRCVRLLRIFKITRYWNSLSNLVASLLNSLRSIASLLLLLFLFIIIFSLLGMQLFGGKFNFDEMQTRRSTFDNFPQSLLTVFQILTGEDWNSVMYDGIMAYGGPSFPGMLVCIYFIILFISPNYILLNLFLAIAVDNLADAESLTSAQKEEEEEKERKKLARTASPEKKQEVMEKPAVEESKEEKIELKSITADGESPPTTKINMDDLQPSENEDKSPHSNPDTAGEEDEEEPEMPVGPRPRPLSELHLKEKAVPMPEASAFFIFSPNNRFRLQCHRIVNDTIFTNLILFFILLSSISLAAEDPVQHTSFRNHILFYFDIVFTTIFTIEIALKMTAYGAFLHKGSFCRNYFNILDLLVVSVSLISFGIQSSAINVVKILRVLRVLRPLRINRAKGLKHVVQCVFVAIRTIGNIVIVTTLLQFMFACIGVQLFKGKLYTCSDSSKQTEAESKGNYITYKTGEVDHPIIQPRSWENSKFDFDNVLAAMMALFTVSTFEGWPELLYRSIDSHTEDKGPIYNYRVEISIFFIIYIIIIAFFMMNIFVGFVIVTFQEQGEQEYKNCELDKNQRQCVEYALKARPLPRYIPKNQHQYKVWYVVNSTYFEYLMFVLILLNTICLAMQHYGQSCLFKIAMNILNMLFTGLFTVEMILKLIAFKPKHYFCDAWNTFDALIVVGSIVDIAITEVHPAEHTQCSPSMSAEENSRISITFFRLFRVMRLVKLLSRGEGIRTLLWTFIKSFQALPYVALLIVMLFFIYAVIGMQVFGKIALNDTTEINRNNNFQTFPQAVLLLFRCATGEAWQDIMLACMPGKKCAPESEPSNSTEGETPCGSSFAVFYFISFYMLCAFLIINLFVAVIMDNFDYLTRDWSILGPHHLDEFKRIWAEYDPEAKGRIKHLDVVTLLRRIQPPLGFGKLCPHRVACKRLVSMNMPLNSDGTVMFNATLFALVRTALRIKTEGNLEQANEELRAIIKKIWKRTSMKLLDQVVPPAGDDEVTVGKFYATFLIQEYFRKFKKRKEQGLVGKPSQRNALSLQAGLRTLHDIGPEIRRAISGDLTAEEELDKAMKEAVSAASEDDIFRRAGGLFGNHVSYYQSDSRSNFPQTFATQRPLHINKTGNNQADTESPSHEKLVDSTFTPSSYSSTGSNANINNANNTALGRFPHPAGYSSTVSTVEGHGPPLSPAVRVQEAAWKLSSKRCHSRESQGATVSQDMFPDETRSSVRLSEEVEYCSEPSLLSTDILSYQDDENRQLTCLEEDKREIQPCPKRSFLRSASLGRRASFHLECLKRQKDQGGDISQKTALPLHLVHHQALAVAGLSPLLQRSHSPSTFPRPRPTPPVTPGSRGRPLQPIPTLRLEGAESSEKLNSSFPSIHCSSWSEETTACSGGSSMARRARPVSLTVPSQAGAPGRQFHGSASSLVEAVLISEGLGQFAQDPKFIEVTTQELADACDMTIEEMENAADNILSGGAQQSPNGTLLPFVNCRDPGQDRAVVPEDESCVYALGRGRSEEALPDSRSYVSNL
T1 sequence (P54290 25-944 partner limits assumed, other chains not shown): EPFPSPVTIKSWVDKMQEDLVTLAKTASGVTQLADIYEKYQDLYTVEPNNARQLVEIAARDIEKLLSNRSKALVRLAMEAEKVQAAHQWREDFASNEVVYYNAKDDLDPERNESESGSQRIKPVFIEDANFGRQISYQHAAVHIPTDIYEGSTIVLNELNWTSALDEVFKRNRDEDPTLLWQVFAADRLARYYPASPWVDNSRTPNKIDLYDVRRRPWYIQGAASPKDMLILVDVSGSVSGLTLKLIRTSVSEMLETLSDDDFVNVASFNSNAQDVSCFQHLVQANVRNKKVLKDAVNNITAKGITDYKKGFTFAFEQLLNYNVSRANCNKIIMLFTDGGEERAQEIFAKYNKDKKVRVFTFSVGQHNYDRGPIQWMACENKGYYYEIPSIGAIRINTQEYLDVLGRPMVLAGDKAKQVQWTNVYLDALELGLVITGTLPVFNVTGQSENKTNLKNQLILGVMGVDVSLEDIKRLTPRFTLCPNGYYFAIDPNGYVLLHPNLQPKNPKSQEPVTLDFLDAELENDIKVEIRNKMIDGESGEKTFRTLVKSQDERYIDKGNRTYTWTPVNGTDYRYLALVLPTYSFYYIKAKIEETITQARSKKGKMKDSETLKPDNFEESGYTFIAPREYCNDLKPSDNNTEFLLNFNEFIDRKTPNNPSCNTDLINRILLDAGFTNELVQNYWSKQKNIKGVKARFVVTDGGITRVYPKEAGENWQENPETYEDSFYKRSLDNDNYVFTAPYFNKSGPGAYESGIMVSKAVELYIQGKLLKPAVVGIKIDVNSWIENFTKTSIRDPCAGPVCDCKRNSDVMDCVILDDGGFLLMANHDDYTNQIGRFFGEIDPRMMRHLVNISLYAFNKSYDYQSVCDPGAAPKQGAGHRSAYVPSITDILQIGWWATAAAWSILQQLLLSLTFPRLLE
T1 sequence (P54290 945-1091 partner limits assumed, other chains not shown): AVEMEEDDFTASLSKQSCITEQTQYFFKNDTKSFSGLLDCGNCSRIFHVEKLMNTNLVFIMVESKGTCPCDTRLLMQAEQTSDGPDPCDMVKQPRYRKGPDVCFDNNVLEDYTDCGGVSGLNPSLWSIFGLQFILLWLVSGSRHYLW

The molecule `COCCOC(=O)C1=C(C)NC(C)=C(C(=O)OC(C)C)C1c1c(F)cccc1Cl` (racemic) [Example 3, (±) isopropyl 2-methoxyethyl 4-(2-chloro-6-fluorophenyl)-1,4-dihydro-2,6-dimethylpyridine-3,5-dicarboxylate] displayed a melting point of 57 to 59 °C.

Turning to `COCCOC(=O)C1=C(C)NC(C)=C(C(=O)OC(C)C)C1c1c(F)cccc1F` (racemic) [Example 6, (±) isopropyl 2-methoxyethyl 4-(2,6-difluorophenyl)-1,4-dihydro-2,6-dimethylpyridine-3,5-dicarboxylate], the melting point is 119 to 120 °C.

With `COCCOC(=O)C1=C(C)NC(C)=C(C(=O)OC(C)C)C1c1cccc(F)c1F` (racemic) [Example 9, (±) isopropyl 2-methoxyethyl 4-(2,3-difluorophenyl)-1,4-dihydro-2,6-dimethylpyridine-3,5-dicarboxylate], the melting point was 135 to 136 °C.

In the case of `COCCOC(=O)C1=C(C)NC(C)=C(C(=O)OC(C)C)C1c1cc(Cl)ccc1Cl` (racemic) [Example 12, (±) isopropyl 2-methoxyethyl 4-(2,5-dichlorophenyl)-1,4-dihydro-2,6-dimethylpyridine-3,5-dicarboxylate], the melting point lay within 79 to 89 °C. The molecule also had a Ki in series [1] of 72 nM. In series [2], this molecule had a Selectivity of 10.

In turn, `COCCOC(=O)C1=C(C)NC(C)=C(C(=O)OC(C)C)C1c1cccc(Cl)c1C#N` (racemic) [Example 15, (±) isopropyl 2-methoxyethyl 4-(3-chloro-2-cyanophenyl)-1,4-dihydro-2,6-dimethylpyridine-3,5-dicarboxylate] showed a Ki in series [1] of 11.3 nM. This molecule also showed a Selectivity in series [2] of 5.7.

The molecule `COCCOC(=O)C1=C(C)NC(C)=C(C(=O)OC(C)C)C1c1ccc(F)c(F)c1` (racemic) [Example 18] had a melting point of 78 °C. The Ki in series [1] is 28 nM. In addition, the Selectivity in series [2] is recorded as 3.4.

Molecule `COCCOC(=O)C1=C(C)NC(C)=C(C(=O)OC(C)C)C1c1cccc(C(F)(F)F)c1F` (racemic) [Example 27, (±) isopropyl 2-methoxyethyl 4-(2-fluoro-3-trifluoromethylphenyl)-1,4-dihydro-2,6-dimethylpyridine-3,5-dicarboxylate] registered a melting point of 140 to 142 °C.

As to `COCCOC(=O)C1=C(C)NC(C)=C(C(=O)OC2CCCC2)C1c1cccc(C#N)c1Cl` (racemic) [Example 30, (±) cyclopentyl 2-methoxyethyl 4-(2-chloro-3-cyanophenyl)-1,4-dihydro-2,6-dimethylpyridine-3,5-dicarboxylate], the melting point lay in the range of 119 to 120 °C. This molecule also came in with a Ki in series [1] of 8 nM. The Selectivity in series [2] turned out to be 4.7.

The molecule `COCCOC(=O)C1=C(C)NC(C)=C(C(=O)OC(C)(C)C)C1c1cccc(C#N)c1` (racemic) [Example 33, (±) tert-butyl 2-methoxyethyl 4-(3-cyanophenyl)-1,4-dihydro-2,6-dimethylpyridine-3,5-dicarboxylate] yielded a melting point of 108 to 109 °C. Further, in series [1], the Ki came out at 7.9 nM. In series [2], this molecule gave a Selectivity of 2.2.

`COCCOC(=O)C1=C(C)NC(C)=C(C(=O)OC2CCCC2)C1c1cccc(C(F)(F)F)c1F` (racemic) [Example 36, (±) cyclopentyl 2-methoxyethyl 4-(2-fluoro-3-trifluoromethylphenyl)-1,4-dihydro-2,6-dimethylpyridine-3,5-dicarboxylate] showed a melting point of 105 °C.

Turning to `COCCOC(=O)C1=C(C)NC(C)=C(C(=O)OC)C1c1cccc(C(F)(F)F)c1F` (racemic) [Example 39, (±) 2-methoxyethyl methyl 4-(2-fluoro-3-trifluoromethylphenyl)-1,4-dihydro-2,6-dimethylpyridine-3,5-dicarboxylate], the melting point is 128 °C.

With `COCCOC(=O)C1=C(C)NC(C)=C(C(=O)OC2CCCC2)C1c1cccc(Cl)c1C#N` (racemic) [Example 46, (±) cyclopentyl 2-methoxyethyl 4-(2-cyano-3-chlorophenyl)-1,4-dihydro-2,6-dimethylpyridine-3,5-dicarboxylate], the melting point is 128 to 130 °C.

`COC(=O)C1=C(C)NC(C)=C(C(=O)OCCN(C)Cc2ccccc2)C1c1cccc([N+](=O)[O-])c1` (centres unmarked) [Nicardipine, nicardipine, reference compound] showed a Ki in series [1] of 14 nM.

`COCCOC(=O)C1=C(C)NC(C)=C(C(=O)OC(C)C)C1c1cccc([N+](=O)[O-])c1` (centres unmarked) [Nimodipine, nimodipine, reference compound] returned a Ki in series [1] of 4.6 nM.
